In ChEMBL document CHEMBL4834404, “Template-Hopping Approach Leads to Potent, Selective, and Highly Soluble Bromo and Extraterminal Domain (BET) Second Bromodomain (BD2) Inhibitors” (J Med Chem, 2021):
In brackets after ≈: the same amount, converted by molar mass.

Tests used:
[1] = molecular target: Bromodomain-containing protein 4 (Homo sapiens, UniProt O60885, Y97A); test: Inhibition of 6His-Thr-BRD4 (1 to 477 residues) BD1 Y97A mutant (unknown origin) incubated for 30 mins by TR-FRET assay
[2] = molecular target: Bromodomain-containing protein 4 (Homo sapiens, UniProt O60885, Y390A); test: Inhibition of 6His-Thr-BRD4 (1 to 477 residues) BD2 domain Y390A mutant (unknown origin) incubated for 30 mins by TR-FRET assay
Homo sapiens = organism: Homo sapiens; test: Selectivity index, ratio of pIC50 of BRD4 BD1 (unknown origin) to pIC50 of BRD4 BD2 (unknown origin)
[3] = Solubility of compound by CLND assay; type: physicochemical
[4] = Permeability of compound; type: ADME; conditions: not told; read-out: permeability
[5] = Solubility of the compound in pH 6.5 FaSSIF at 1 mg measured after 4 hrs by HPLC analysis; type: physicochemical

Row | SMILES | IC50 [1] [µM] | IC50 [2] [µM] | Ratio pIC50 (Homo sapiens) | solubility kinetic [3] [µg/mL] | Papp [4] [×10⁻⁶ cm/s] | solubility at 4 h [5] [µg/mL]
1 | Cc1cn(-c2ccccc2OCc2ccccc2)nn1 | 31.6 | 15.8 | 2 | 96 (≈ 362 µM) | – | –
2 | CCNC(=O)c1cc(Cc2cccc(OC)c2)nc(-c2cn(C)nn2)c1 | > 50.1 | 0.631 | > 80 | ≥ 45 | 47 | –
3 | C[C@H](Oc1ccc(C(=O)NCC2CCOCC2)cc1-c1cn(C)nn1)c1ccccn1 | 31.6 | 0.501 | 65 | ≥ 192 | 5.5 | –
4 | CCNC(=O)c1ccc(OCc2cccnc2)c(-c2cn(C)nn2)c1 | > 50.1 | 1 | > 50 | 103 (≈ 305 µM) | 18 | –
5 | CCNC(=O)c1ccc(OCc2ncccn2)c(-c2cn(C)nn2)c1 | > 50.1 | 1.58 | > 30 | ≥ 103 | 3.7 | –
6 | Cn1cc(-c2ccccc2OCc2ccccc2)nn1 | 20 | 3.98 | 5 | 87 (≈ 328 µM) | – | –
7 | CNC(=O)c1cc(C(=O)NC2CC2)cn(Cc2ccccc2)c1=O [GSK620] | – | – | – | ≥ 154 | 20 | –
8 | CC(=O)Nc1c(F)cc(C(=O)N[C@H]2CC[C@H](O)CC2)cc1O[C@@H](C)c1ccccc1 [GSK046] | – | – | – | – | 1.7 | 996 (≈ 2400 µM)
9 | Cc1nnc(-c2ccccc2OCc2ccccc2)o1 | > 50.1 | 12.6 | > 4 | ≥ 252 | – | –
10 | CCNC(=O)c1cc(Cc2ccc(OC)cc2)nc(-c2cn(C)nn2)c1 | > 50.1 | 0.794 | > 65 | 53 (≈ 151 µM) | 32 | –
11 | C[C@H](Oc1ccc(C(=O)N[C@H]2CC[C@H](O)CC2)cc1-c1cn(C)nn1)c1ccccn1 | 7.94 | 0.398 | 20 | ≥ 188 | 1.3 | –
12 | CCNC(=O)c1ccc(O[C@H](C)c2ccccc2)c(-c2cn(C)nn2)c1 | 39.8 | 1.58 | 25 | 119 (≈ 340 µM) | 42 | –
13 | CCNC(=O)c1ccc(OCC2CCOCC2)c(-c2cn(C)nn2)c1 | – | – | – | ≥ 208 | 11 | –
14 | CC(=O)Nc1ccccc1OCc1ccccc1 | – | – | – | ≥ 113 | – | –
15 | CCNC(=O)c1cc(Cc2ccccc2)nc(C(=O)NC)c1 | – | – | – | ≥ 102 | 39 | 310 (≈ 1040 µM)
16 | CCNC(=O)c1ccc(OCc2ccncc2)c(-c2cn(C)nn2)c1 | 12.6 | 1 | 15 | ≥ 115 | 30 | –
17 | Cc1cc(-c2ccccc2OCc2ccccc2)on1 | 10 | 3.98 | 3 | 1 (≈ 3.77 µM) | – | –
18 | Cc1nc(-c2ccccc2OCc2ccccc2)n[nH]1 | > 50.1 | 7.94 | > 6 | ≥ 70 | – | –
19 | Cn1cc(-c2cc(C(=O)NCC3CCOCC3)cc(Cc3ccccc3)n2)nn1 | > 50.1 | 0.316 | > 160 | ≥ 142 | 22 | –
20 | CCNC(=O)c1ccc(OCCc2ccccc2)c(-c2cn(C)nn2)c1 | > 50.1 | 2.51 | > 20 | 95 (≈ 271 µM) | 49 | –

More lines, now with the values ahead:

Row | IC50 [1] [µM] | IC50 [2] [µM] | Ratio pIC50 (Homo sapiens) | solubility kinetic [3] [µg/mL] | Papp [4] [×10⁻⁶ cm/s] | solubility at 4 h [5] [µg/mL] | SMILES
21 | 1.58 | 0.0251 | 65 | ≥ 169 | 4.2 | – | C[C@H](Oc1ccc(C(=O)N[C@H]2[C@@H]3COC[C@@H]32)cc1-c1cn(C)nn1)c1ccccn1
22 | 5.01 | 0.0501 | 100 | ≥ 145 | 24 | – | Cn1cc(-c2cc(C(=O)N[C@H]3[C@@H]4COC[C@@H]43)cc(Cc3ccccc3)n2)nn1
23 | 20 | 0.126 | 160 | ≥ 162 | 48 | – | CCNC(=O)c1ccc(OCc2ccccc2OC)c(-c2cn(C)nn2)c1
24 | – | 0.126 | 125 | ≥ 76 | 36 | – | Cn1cc(-c2cc(C(=O)NC3CC3)cc(Cc3ccccc3)n2)nn1
25 | 39.8 | 0.316 | 125 | 114 (≈ 338 µM) | 14 | – | CCNC(=O)c1ccc(OCc2ccccn2)c(-c2cn(C)nn2)c1
26 | 12.6 | 0.0316 | 400 | ≥ 138 | 1.8 | – | Cn1cc(-c2cc(C(=O)NCC[C@@H]3CNCCO3)cc(Cc3ccccc3)n2)nn1
27 | 20 | 0.316 | 65 | ≥ 142 | 39 | – | CCNC(=O)c1ccc(OCc2ccc(OC)cc2)c(-c2cn(C)nn2)c1
28 | 20 | 0.251 | 80 | 75 (≈ 221 µM) | 33 | – | CCNC(=O)c1cc(Cc2ccc(F)cc2)nc(-c2cn(C)nn2)c1
29 | 3.98 | 0.0398 | 100 | 105 (≈ 300 µM) | 42 | – | CCNC(=O)c1ccc(O[C@@H](C)c2ccccc2)c(-c2cn(C)nn2)c1
30 | 15.8 | 0.0631 | 250 | ≥ 189 | 4.8 | – | Cn1cc(-c2cc(C(=O)NCC[C@H]3CNCCO3)cc(Cc3ccccc3)n2)nn1
31 | 12.6 | 0.251 | 50 | 40 (≈ 136 µM) | 14 | – | Cn1cc(-c2cc(C(N)=O)cc(Cc3ccccc3)n2)nn1
32 | 10 | 0.126 | 80 | ≥ 138 | 7 | – | CNC(=O)c1ccc(O[C@@H](C)c2ccccn2)c(-c2cn(C)nn2)c1
33 | 7.94 | 0.0794 | 100 | ≥ 127 | 15 | – | CCNC(=O)c1ccc(O[C@@H](C)c2ccccn2)c(-c2cn(C)nn2)c1
34 | 7.94 | 0.0631 | 125 | ≥ 182 | < 0.3 | – | C[C@H](Oc1ccc(C(=O)NCC[C@H]2CNCCO2)cc1-c1cn(C)nn1)c1ccccn1
35 | 12.6 | 0.126 | 100 | 46 (≈ 137 µM) | 4.6 | – | CCNC(=O)c1ccc(OCc2ccccc2)c(-c2cn(C)nn2)c1
36 | 15.8 | 0.126 | 100 | ≥ 194 | 5.9 | – | C[C@H](Oc1ccc(C(=O)NC2CCOCC2)cc1-c1cn(C)nn1)c1ccccn1
37 | 6.31 | 0.251 | 25 | 131 (≈ 405 µM) | 4.7 | – | C[C@H](Oc1ccc(C(N)=O)cc1-c1cn(C)nn1)c1ccccn1
38 | 20 | 0.251 | 80 | ≥ 139 | 42 | – | CCNC(=O)c1ccc(OCc2cccc(OC)c2)c(-c2cn(C)nn2)c1
39 | 15.8 | 0.251 | 65 | 73 (≈ 215 µM) | 41 | – | CCNC(=O)c1cc(Cc2cccc(F)c2)nc(-c2cn(C)nn2)c1
40 | 39.8 | 0.2 | 200 | 62 (≈ 176 µM) | 37 | – | CCNC(=O)c1cc(Cc2ccccc2OC)nc(-c2cn(C)nn2)c1
41 | 6.31 | 0.0251 | 250 | ≥ 177 | < 0.3 | – | C[C@H](Oc1ccc(C(=O)NCC[C@@H]2CNCCO2)cc1-c1cn(C)nn1)c1ccccn1
42 | – | 0.1 | 170 | ≥ 157 | 32.5 | – | CCNC(=O)c1cc(Cc2ccccc2)nc(-c2cn(C)nn2)c1
43 | 5.01 | 0.01 | 500 | ≥ 172 | 2.3 | – | Cn1cc(-c2cc(C(=O)NCCC[C@@]3(F)CCCNC3)cc(Cc3ccccc3)n2)nn1
44 | 3.98 | 0.01 | 400 | ≥ 193 | 0.53 | – | C[C@H](Oc1ccc(C(=O)NCCC[C@@]2(F)CCCNC2)cc1-c1cn(C)nn1)c1ccccn1
45 | 6.31 | 0.0251 | 250 | ≥ 181 | 1.9 | – | Cn1cc(-c2cc(C(=O)NCC[C@]3(F)CCCNC3)cc(Cc3ccccc3)n2)nn1
46 | 10 | 0.0251 | 400 | ≥ 134 | < 0.3 | – | Cn1cc(-c2cc(C(=O)NCCCC3CCNCC3)cc(Cc3ccccc3)n2)nn1
47 | 20 | 0.2 | 100 | 66 (≈ 194 µM) | 30 | – | CCNC(=O)c1cc(Cc2ccccc2F)nc(-c2cn(C)nn2)c1
48 | 20 | 0.126 | 160 | ≥ 141 | 27 | – | Cn1cc(-c2cc(C(=O)NC3CCOCC3)cc(Cc3ccccc3)n2)nn1
